The test system of one assay is S. aureus FDA 209P. In words: Minimum inhibitory concentration, agar dilution, S. aureus FDA 209P. The format is cell-based, Staphylococcus aureus FDA 209P. Particulars: Staphylococcus aureus, FDA209P; agar dilution, average of duplicate determinations. As to the method:
(§1) Determination of Minimum Inhibitory Concentrations. The screening experiments in vitro were carried out for antibacterial activities of the phloroglucide analogs II-VII, XII-XIV, bifunctional cephalosporins VIII and IX, as well as 7-(phloroglucidamido)cephalosporins X and XI. Cephalosporins XV and XVI were used as the reference compounds. The lowest concentrations of antibiotics needed for prevention of visible growth of microorganisms; reported as the average values of duplicate determinations. Minimum inhibitory concentrations (MIC) values obtained by use of an agar dilution method whereby organisms were deposited onto medicated agar plates by the replication device of Steers et al [Steers, F. et al. Antibiot. Chemother. 1959, 9, 307].

The subject of another assay is S. aureus 95. Nature of the assay: Minimum inhibitory concentration, agar dilution, S. aureus 95. The format is cell-based, Staphylococcus aureus 95. Particulars: Staphylococcus aureus, 95; agar dilution, average of duplicates; β-lactamase-producing, methicillin resistant organism; read-out: Minimum Inhibitory Concentration (MIC), S. aureus 95. As to the method:
as §1

In another assay the test system is C. albicans. Nature of the assay: Minimum inhibitory concentration, agar dilution, C. albicans. Type of assay: cell-based. Particulars: Candida albicans; agar dilution, average of duplicate determinations; read-out: Minimum Inhibitory Concentration (MIC), C. albicans. As to the method:
as §1

In a further assay the test system is Ps. aerureus 1101-75. In words: Minimum inhibitory concentration, agar dilution, Ps. 1101-75. Type of assay: cell-based, Pseudomonas aeruginosa. Particulars: Pseudomonas aeruginosa, 110175; agar dilution, average of duplicate determinations; read-out: Minimum Inhibitory Concentration (MIC), Ps. aerureus 1101-75. As to the method:
as §1

Another assay deals with PS. aerureus 18S-H. Nature of the assay: Minimum inhibitory concentration, agar dilution, Ps. 18S-H. Type of assay: cell-based, Pseudomonas aeruginosa 18S-H. Particulars: Pseudomonas aeruginosa, 18SH, read-out: Minimum Inhibitory Concentration (MIC), PS. aerureus 18S-H. On the procedure:
as §1

In assay [1] the test system is pathogenic microorganisms. Nature of the assay: Antibacterial activity in vitro (statements in words). The format is cell-based. On the procedure:
as §1

≈ marks a conversion by molar mass, not a printed value. Entries after “also recorded” stand apart in the source; their conditions may differ.

In the case of `O=C(O)c1cccc(Cc2cc(Cl)cc(Cc3ccccc3O)c2O)c1O` [II, 2-(3-Carboxy-2-hydroxybenzyl)-6-(2-hydroxybenzyl)-4-chlorophenol], the MIC in the assay on S. aureus FDA 209P stood at 0.86 µg/mL (≈ 2.23 µM); in the assay on S. aureus 95 it was 0.43 µg/mL (≈ 1.12 µM); with C. albicans it was 1.43 µg/mL (≈ 3.72 µM); with Ps. aerureus 1101-75, 0.02 µg/mL (≈ 0.052 µM); in the assay with PS. aerureus 18S-H it was 0.1 µg/mL (≈ 0.26 µM). In addition, the “antibacterial activity in words” value in assay [1] was “more potent antimicrobial activity than that of the model phloroglucide (XXI)”.
For `O=C(O)c1cccc(C(=O)c2cc(Cl)cc(C(=O)c3ccccc3O)c2O)c1O` [III, 2-(3-Carboxy-2-hydroxybenzoyl)-6-(2-hydroxybenzoyl)-4-chlorophenol], the MIC against S. aureus FDA 209P stood at 3.67 µg/mL (≈ 8.89 µM); in the assay on S. aureus 95, 0.98 µg/mL (≈ 2.37 µM); with C. albicans, 3.7 µg/mL (≈ 8.96 µM); with Ps. aerureus 1101-75, 0.17 µg/mL (≈ 0.412 µM); in the assay with PS. aerureus 18S-H it was 0.26 µg/mL (≈ 0.63 µM). Further, the “antibacterial activity in words” value in assay [1] is “its antimicrobial property decreased; also recorded: In comparison with dicarboxylic acid derivative (XV), mono-carboxylic acid (III) however exhibited greater potency; also recorded: lower efficacy than phenolic acid (II) and phenol (XII) against pathogenic microorganisms”.
In the case of `COC(=O)c1cccc(Cc2cc(Cl)cc(Cc3ccccc3O)c2O)c1O` [IV], the MIC was 2.98 µg/mL (≈ 7.47 µM) against S. aureus FDA 209P; 4.65 µg/mL (≈ 11.7 µM) in the assay on S. aureus 95; 117 µg/mL (≈ 294 µM) in the assay on C. albicans; 1.25 µg/mL (≈ 3.13 µM) with Ps. aerureus 1101-75; 1.56 µg/mL (≈ 3.91 µM) in the assay on PS. aerureus 18S-H. The “antibacterial activity in words” value in assay [1] was “lower efficacy than phloroglucides (II) and (III) as well as the bifunctional cephalosporins (VIII) and (IX)”.
`CNC(=O)c1cccc(C(=O)c2cc(Cl)cc(C(=O)c3ccccc3O)c2O)c1O` [VII]: the MIC in the assay with S. aureus FDA 209P was found to be 18.1 µg/mL (≈ 42.6 µM); in the assay on S. aureus 95, 17.8 µg/mL (≈ 41.7 µM); with C. albicans, 120 µg/mL (≈ 281 µM); with Ps. aerureus 1101-75 it was 6.03 µg/mL (≈ 14.2 µM); in the assay with PS. aerureus 18S-H it was 8.32 µg/mL (≈ 19.5 µM). The “antibacterial activity in words” value in assay [1] is “lower efficacy than phloroglucides (II) and (III) as well as the bifunctional cephalosporins (VIII) and (IX)”.
Take `CNC(=O)c1cccc(Cc2cc(Cl)cc(Cc3ccccc3O)c2O)c1O` [VI]: the MIC amounted to 7.35 µg/mL (≈ 18.5 µM) in the assay on S. aureus FDA 209P; 6.63 µg/mL (≈ 16.7 µM) in the assay on S. aureus 95; 114 µg/mL (≈ 287 µM) with C. albicans; 3.28 µg/mL (≈ 8.24 µM) in the assay on Ps. aerureus 1101-75; 4.7 µg/mL (≈ 11.8 µM) in the assay with PS. aerureus 18S-H. Also, the “antibacterial activity in words” value in assay [1] is “lower efficacy than phloroglucides (II) and (III) as well as the bifunctional cephalosporins (VIII) and (IX)”.
For the compound `COC(=O)c1cccc(C(=O)c2cc(Cl)cc(C(=O)c3ccccc3O)c2O)c1O` [V], the MIC in the assay on S. aureus FDA 209P came out at 14.7 µg/mL (≈ 34.4 µM); with S. aureus 95, 15.3 µg/mL (≈ 35.9 µM); in the assay on C. albicans, 125 µg/mL (≈ 294 µM); in the assay on Ps. aerureus 1101-75, 5.78 µg/mL (≈ 13.5 µM); in the assay with PS. aerureus 18S-H it was 4.3 µg/mL (≈ 10.1 µM). The “antibacterial activity in words” value in assay [1] was “lower efficacy than phloroglucides (II) and (III) as well as the bifunctional cephalosporins (VIII) and (IX)”.
Regarding `Oc1ccccc1Cc1cc(Cl)cc(Cc2ccccc2O)c1O` [XII, reference compound], the MIC amounted to 1.2 µg/mL (≈ 3.52 µM) in the assay on S. aureus FDA 209P; 0.58 µg/mL (≈ 1.7 µM) in the assay with S. aureus 95; 2.06 µg/mL (≈ 6.04 µM) with C. albicans; 0.07 µg/mL (≈ 0.205 µM) with Ps. aerureus 1101-75; 0.18 µg/mL (≈ 0.528 µM) in the assay with PS. aerureus 18S-H.
On to `O=C(O)c1cccc(Cc2cc(Cl)cc(Cc3cccc(C(=O)O)c3O)c2O)c1O` [XIII, reference compound], for which the MIC in the assay on S. aureus FDA 209P stood at 3.25 µg/mL (≈ 7.58 µM); with S. aureus 95, 4.15 µg/mL (≈ 9.68 µM); with C. albicans, 16.5 µg/mL (≈ 38.5 µM); in the assay on Ps. aerureus 1101-75 it was 0.86 µg/mL (≈ 2.01 µM); in the assay with PS. aerureus 18S-H it was 1.32 µg/mL (≈ 3.08 µM).
As to `O=C(O)c1cccc(C(=O)c2cc(Cl)cc(C(=O)c3cccc(C(=O)O)c3O)c2O)c1O` [XIV, reference compound], the MIC against S. aureus FDA 209P turned out to be 18.2 µg/mL (≈ 40 µM); in the assay with S. aureus 95, 22.2 µg/mL (≈ 48.6 µM); in the assay with C. albicans, 19.1 µg/mL (≈ 41.9 µM); in the assay on Ps. aerureus 1101-75, 2.54 µg/mL (≈ 5.56 µM); in the assay on PS. aerureus 18S-H, 3.06 µg/mL (≈ 6.7 µM).
